Data as given in publication PMC11345841, “Exploring 2-Sulfonylpyrimidine Warheads as Acrylamide Surrogates for Targeted Covalent Inhibition: A BTK Story” (Journal of Medicinal Chemistry, 2024).
Read-outs that look alike come from different tables or passages of the source.

Columns and labels:
[1] = target: T1, MUSK (Homo sapiens, UniProt O15146); assay: KINOMEscan ScanTK; type: binding
T1 construct: purchased Eurofins DiscoverX KINOMEscan (scanTK)
T1 sequence (O15146 24-869): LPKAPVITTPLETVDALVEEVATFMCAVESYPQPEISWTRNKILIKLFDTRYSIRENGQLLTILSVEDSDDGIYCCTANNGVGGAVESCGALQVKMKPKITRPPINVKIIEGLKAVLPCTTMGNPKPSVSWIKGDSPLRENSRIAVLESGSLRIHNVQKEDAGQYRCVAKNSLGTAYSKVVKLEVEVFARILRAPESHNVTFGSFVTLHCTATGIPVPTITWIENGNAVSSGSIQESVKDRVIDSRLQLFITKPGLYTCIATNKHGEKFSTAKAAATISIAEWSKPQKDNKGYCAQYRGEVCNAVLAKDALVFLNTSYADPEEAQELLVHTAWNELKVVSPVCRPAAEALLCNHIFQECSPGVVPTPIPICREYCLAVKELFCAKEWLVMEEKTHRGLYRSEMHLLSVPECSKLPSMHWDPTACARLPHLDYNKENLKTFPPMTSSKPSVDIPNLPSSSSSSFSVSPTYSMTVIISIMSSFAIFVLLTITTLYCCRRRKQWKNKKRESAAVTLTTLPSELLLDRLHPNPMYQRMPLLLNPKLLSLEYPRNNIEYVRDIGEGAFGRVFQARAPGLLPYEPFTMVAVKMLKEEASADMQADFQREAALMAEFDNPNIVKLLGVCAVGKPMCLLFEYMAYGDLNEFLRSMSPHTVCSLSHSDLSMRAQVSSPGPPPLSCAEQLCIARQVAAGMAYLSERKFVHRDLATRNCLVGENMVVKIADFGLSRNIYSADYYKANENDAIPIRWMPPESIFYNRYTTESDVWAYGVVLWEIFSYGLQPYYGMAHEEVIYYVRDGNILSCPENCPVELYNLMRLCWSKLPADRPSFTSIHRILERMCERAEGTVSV

[2] = target: T2, EPHB1 (Homo sapiens, UniProt P54762); assay: KINOMEscan ScanTK; type: binding
T2 construct: purchased Eurofins DiscoverX KINOMEscan (scanTK)
T2 sequence (P54762 18-984): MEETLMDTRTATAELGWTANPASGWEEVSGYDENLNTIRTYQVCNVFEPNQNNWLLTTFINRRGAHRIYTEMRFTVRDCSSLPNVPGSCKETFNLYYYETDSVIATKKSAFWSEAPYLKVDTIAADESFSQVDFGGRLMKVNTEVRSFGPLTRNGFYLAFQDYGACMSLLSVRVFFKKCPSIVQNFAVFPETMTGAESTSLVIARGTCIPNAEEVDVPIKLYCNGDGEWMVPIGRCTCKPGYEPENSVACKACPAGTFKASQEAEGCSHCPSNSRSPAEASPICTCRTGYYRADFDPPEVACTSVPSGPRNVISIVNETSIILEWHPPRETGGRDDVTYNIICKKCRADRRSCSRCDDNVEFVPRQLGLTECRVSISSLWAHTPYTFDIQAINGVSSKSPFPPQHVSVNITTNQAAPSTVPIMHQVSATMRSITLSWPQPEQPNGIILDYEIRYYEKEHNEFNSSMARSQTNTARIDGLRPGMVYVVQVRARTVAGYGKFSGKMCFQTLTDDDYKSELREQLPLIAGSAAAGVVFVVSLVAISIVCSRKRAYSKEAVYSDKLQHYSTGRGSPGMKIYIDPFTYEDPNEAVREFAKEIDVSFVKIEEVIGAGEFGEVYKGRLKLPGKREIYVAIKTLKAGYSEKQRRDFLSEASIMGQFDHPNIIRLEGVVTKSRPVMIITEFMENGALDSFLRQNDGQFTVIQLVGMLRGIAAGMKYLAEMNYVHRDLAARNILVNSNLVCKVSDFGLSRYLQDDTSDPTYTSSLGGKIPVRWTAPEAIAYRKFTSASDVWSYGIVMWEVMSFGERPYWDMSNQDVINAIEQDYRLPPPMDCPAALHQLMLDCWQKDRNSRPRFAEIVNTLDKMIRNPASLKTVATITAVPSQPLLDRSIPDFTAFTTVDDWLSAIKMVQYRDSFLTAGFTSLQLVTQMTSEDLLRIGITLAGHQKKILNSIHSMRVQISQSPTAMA

[3] = target: T3, EPHA7 (Homo sapiens, UniProt Q15375); assay: KINOMEscan ScanTK; type: binding
T3 construct: purchased Eurofins DiscoverX KINOMEscan (scanTK)
T3 sequence (Q15375 28-998): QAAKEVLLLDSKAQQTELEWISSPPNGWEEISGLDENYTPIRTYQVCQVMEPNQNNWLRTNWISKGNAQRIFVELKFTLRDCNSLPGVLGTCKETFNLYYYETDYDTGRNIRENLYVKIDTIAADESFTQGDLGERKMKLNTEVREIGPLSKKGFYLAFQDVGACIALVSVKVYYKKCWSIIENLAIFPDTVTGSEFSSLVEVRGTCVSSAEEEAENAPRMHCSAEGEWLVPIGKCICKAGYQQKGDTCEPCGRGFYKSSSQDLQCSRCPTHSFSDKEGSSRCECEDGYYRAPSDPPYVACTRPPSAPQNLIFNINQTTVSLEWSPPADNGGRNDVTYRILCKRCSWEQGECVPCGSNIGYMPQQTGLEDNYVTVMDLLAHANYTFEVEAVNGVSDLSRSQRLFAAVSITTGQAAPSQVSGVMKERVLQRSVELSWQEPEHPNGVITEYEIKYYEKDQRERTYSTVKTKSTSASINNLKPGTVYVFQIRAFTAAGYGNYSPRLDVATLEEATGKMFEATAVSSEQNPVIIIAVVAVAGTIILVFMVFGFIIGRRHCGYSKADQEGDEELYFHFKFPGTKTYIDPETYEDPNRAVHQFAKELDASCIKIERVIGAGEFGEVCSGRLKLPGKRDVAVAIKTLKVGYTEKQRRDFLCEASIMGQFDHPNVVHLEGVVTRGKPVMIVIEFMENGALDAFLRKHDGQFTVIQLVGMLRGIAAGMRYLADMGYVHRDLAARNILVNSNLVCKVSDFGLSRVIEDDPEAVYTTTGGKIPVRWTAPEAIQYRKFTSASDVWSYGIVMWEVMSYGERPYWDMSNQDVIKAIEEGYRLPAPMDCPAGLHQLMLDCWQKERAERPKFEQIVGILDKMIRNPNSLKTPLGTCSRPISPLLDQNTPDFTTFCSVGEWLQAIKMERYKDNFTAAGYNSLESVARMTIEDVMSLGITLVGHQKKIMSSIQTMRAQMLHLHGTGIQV

[4] = target: T4, BTK (Homo sapiens, UniProt Q06187); assay: KINOMEscan ScanTK; type: binding; details: for remaining binding at 1 µM: BTK; for inhibition at 1 µM: ScanTK
T4 construct: purchased Eurofins DiscoverX KINOMEscan (scanTK)
T4 sequence (Q06187 whole entry): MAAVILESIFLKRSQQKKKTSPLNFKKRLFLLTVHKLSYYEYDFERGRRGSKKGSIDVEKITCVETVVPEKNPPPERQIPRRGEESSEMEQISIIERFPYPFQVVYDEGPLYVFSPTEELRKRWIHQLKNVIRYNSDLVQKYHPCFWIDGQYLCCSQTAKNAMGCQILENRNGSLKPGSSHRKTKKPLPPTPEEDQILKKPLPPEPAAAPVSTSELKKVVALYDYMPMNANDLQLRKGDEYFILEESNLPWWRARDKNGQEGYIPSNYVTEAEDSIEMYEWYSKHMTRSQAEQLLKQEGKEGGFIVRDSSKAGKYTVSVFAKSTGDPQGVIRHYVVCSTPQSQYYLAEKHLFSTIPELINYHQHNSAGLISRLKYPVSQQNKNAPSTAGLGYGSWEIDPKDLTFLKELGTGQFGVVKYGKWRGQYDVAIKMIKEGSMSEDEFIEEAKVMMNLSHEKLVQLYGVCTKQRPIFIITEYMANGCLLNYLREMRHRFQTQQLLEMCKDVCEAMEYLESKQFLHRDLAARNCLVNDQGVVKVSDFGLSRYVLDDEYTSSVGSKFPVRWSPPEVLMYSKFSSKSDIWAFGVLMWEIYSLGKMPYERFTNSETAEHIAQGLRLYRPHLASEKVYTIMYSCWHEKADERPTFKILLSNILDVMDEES

[5] = target: JAK3, catalytic domain (795–1124) (Homo sapiens, UniProt P52333); assay: PhosphoSens enzymatic IC50 (AssayQuant)
Chain of JAK3, catalytic domain (795–1124) (P52333 795-1124): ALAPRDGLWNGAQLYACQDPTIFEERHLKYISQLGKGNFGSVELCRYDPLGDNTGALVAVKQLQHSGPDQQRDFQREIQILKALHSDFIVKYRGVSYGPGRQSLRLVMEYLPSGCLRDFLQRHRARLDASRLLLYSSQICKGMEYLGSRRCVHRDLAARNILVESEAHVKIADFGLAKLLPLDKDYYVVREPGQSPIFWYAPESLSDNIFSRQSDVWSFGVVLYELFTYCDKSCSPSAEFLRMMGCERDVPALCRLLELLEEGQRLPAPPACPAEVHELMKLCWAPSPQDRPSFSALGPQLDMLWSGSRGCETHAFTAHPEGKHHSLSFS
Description: Biochemical enzymatic IC50 data were generated by AssayQuant Technologies (Marlborough, MA) using the PhosphoSens Platform. […] Reaction rate versus log [inhibitor concentration] data were fitted to the four-parameter logistic equation [drawing 1]

[6] = tested on: FLT3(ITD,D835V); assay: KINOMEscan ScanTK; type: binding; details: for % difference (compound - Ib %Control) / %Control: @1000nM
[7] = target: T5, KIT(V559D,V654A) (Homo sapiens, UniProt P10721, V559D/V654A); assay: KINOMEscan ScanTK; type: binding
T5 construct: purchased Eurofins DiscoverX KINOMEscan (scanTK)
T5 sequence (P10721 26-976 V559D/V654A): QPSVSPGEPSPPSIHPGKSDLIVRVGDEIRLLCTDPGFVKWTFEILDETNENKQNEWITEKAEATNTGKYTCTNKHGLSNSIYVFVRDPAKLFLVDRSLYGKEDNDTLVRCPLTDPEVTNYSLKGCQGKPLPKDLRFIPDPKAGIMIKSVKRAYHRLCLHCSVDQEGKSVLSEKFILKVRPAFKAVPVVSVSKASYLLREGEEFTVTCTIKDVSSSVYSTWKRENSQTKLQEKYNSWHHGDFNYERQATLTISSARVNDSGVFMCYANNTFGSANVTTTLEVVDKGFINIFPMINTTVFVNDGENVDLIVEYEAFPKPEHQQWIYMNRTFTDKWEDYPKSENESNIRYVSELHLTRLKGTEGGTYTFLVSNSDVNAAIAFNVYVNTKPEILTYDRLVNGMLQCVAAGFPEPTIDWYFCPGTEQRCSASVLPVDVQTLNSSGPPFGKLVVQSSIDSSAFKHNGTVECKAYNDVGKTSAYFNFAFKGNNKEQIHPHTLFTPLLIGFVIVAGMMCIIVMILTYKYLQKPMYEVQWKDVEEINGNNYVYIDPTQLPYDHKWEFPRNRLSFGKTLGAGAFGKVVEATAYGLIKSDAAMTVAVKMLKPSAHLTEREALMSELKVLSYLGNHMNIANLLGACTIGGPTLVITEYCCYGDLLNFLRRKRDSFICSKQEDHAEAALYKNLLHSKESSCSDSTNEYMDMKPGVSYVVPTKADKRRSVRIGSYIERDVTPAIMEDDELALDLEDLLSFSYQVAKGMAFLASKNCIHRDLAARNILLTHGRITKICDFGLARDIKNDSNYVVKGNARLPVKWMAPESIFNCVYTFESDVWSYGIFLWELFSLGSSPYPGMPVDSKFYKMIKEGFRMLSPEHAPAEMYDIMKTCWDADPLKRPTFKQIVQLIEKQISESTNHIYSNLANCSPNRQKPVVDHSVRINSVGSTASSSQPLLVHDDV

[8] = target: T6, JAK1(JH2domain-pseudokinase) (Homo sapiens, UniProt P23458); assay: KINOMEscan ScanTK; type: binding
T6 construct: JAK1(JH2domain-pseudokinase); purchased Eurofins DiscoverX KINOMEscan (scanTK)
T6 sequence (P23458 583-855 limits assumed): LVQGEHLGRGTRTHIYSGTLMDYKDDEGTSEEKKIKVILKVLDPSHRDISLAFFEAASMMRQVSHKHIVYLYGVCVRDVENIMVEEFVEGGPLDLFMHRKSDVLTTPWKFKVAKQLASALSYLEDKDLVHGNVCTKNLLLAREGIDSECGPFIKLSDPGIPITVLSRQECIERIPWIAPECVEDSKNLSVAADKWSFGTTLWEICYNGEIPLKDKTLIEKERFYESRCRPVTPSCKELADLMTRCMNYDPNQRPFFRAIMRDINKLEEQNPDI

[9] = @1000nM, EPHB1, read-out: %Control
[10] = EPHB1, read-out: %Control @1000nM
[11] = @1000nM, read-out: % difference (compound - Ib %Control)

| SMILES | remaining binding at 1 µM ([1]; @1000nM, read-out: %Control) [%] | remaining binding at 1 µM ([1]; read-out: %Control @1000nM) [%] | difference in % of control versus compound Ib at 1 µM ([2]; @1000nM, EPHB1) [%] | remaining binding at 1 µM [2, 9] [%] | remaining binding at 1 µM [2, 10] [%] | difference in %Control versus compound Ib at 1 µM ([3]; @1000nM) [%] | remaining binding at 1 µM ([3]; @1000nM, read-out: %Control) [%] | remaining binding at 1 µM ([3]; read-out: %Control @1000nM) [%] | remaining binding at 1 µM [4, 11] [%] | remaining binding at 1 µM ([4]; @1000nM, read-out: %Control) [%] | remaining binding at 1 µM ([4]; read-out: %Control @1000nM) [%] | inhibition at 1 µM [4] [%] | %Control @1000nM [6] [%] | % difference (compound - Ib %Control) [6] [%] | %Control [6] [%] | remaining binding at 1 µM ([7]; @1000nM, read-out: %Control) [%] | remaining binding at 1 µM ([7]; read-out: %Control @1000nM) [%] | %Control difference versus compound Ib at 1 µM ([8]; @1000nM) [%] | remaining binding at 1 µM ([8]; @1000nM, read-out: %Control) [%] | remaining binding at 1 µM ([8]; read-out: %Control @1000nM) [%] | further results |
| --- | --- | --- | --- | --- | --- | --- | --- | --- | --- | --- | --- | --- | --- | --- | --- | --- | --- | --- | --- | --- | --- |
| Cc1cnc(S(C)(=O)=O)nc1N1CCCC(n2nc(-c3ccc(Oc4ccccc4)cc3)c3c(N)ncnc32)C1 (stereo not drawn) [Compound 8a, 1-(1-(5-Methyl-2-(methylsulfonyl)pyrimidin-4-yl)piperidin-3-yl)-3-(4-phenoxyphenyl)-1H-pyrazolo[3,4-d]pyrimidin-4-amine] | 88 | 88 | 3 | 93 | 93 | 2 | 97 | 97 | 0.1 | 0.1 | 0.1 | > 99 | 78 | 1 | 78 | 90 | 90 | 5 | 100 | 100 | IC50 [5]: > 1000 nM |
| CCOC(=O)c1cnc(S(C)(=O)=O)nc1N1CCC[C@@H](n2nc(-c3ccc(Oc4ccccc4)cc3)c3c(N)ncnc32)C1 [Compound 8c, Ethyl (R)-4-(3-(4-Amino-3-(4-phenoxyphenyl)-1H-pyrazolo[3,4-d]pyrimidin-1-yl)piperidin-1-yl)-2-(methylsulfonyl)pyrimidine-5-carboxylate] | 73 | 73 | 1 | 91 | 91 | 2 | 97 | 97 | 18 | 18 | 18 | 82 | 69 | -8 | 69 | 97 | 97 | 4 | 99 | 99 | – |
| COC(=O)c1cnc(S(C)(=O)=O)nc1N1CCCC(n2nc(-c3ccc(Oc4ccccc4)cc3)c3c(N)ncnc32)C1 (stereo not drawn) [Compound 8b, Methyl 4-(3-(4-Amino-3-(4-phenoxyphenyl)-1H-pyrazolo[3,4-d]pyrimidin-1-yl)piperidin-1-yl)-2-(methylsulfonyl)pyrimidine-5-carboxylate] | 92 | 92 | -2 | 88 | 88 | -2 | 93 | 93 | 0.75 | 0.75 | 0.75 | > 99 | 93 | 16 | 93 | 86 | 86 | 4 | 99 | 99 | IC50 [5]: > 1000 nM |
| CNC(=O)c1cnc(S(C)(=O)=O)nc1N1CCCC(n2nc(-c3ccc(Oc4ccccc4)cc3)c3c(N)ncnc32)C1 (stereo not drawn) [Compound 8d, 4-(3-(4-Amino-3-(4-phenoxyphenyl)-1H-pyrazolo[3,4-d]pyrimidin-1-yl)piperidin-1-yl)-N-methyl-2-(methylsulfonyl)pyrimidine-5-carboxamide] | 98 | 98 | 1 | 91 | 91 | 4 | 99 | 99 | 0 | 0 | 0 | > 99 | 70 | -7 | 70 | 94 | 94 | 5 | 100 | 100 | IC50 [5]: > 1000 nM |
| C=CC(=O)N1CCC[C@@H](n2nc(-c3ccc(Oc4ccccc4)cc3)c3c(N)ncnc32)C1 [Compound 1g, Ibrutinib, reference compound] | 95 | 95 | – | – | – | – | 95 | 95 | – | – | – | – | 77 | – | 77 | – | – | – | 95 | 95 | remaining binding at 1 µM ([2]; read-out: %Control): 90%; remaining binding at 1 µM ([2]; read-out: %Control @1000nM): 90% |
